The values below come from patent US20100286389A1, “STABLE CRYSTAL OF BETA-LACTAM COMPOUND” (priority 2007, published 2010).

In series [1] the test system is Gram positive bacteria, especially methicillin resistant staphylococcus and methicillin resistant coagulase negative staphylococcus. The conditions noted are these: cited from earlier work.
The nature of series [2]: Stability test on Form I crystal under humidity condition (Test 4). The format is physicochemical. To be noted: usual handling condition. The text has this:
Evaluation was based on change of area percentage of Compound A with HPLC (High Performance Liquid Chromatography) under following conditions:
(§1) Column: SUMIPAX ODS-A212 (silica gel binding with octadecyl group, particle size 5 μm; 6.0 mm φ×15 cm), mobile phase A solution: a mixture of 0.005 mol/L phosphate buffer (pH7.0) and acetonitrile (300:23(v/v)), mobile phase B solution: acetonitrile, solvent for sample: water and acetonitrile (90:10(v/v)), wavelength: 220 nm, column temperature: constant temperature around 25° C., flow rate: 1.0 mL/min, injection amount: 10 μL, and gradient condition: […]
In order to confirm the stability on Form I crystal under humidity condition was conducted following test. The test was carried out by using moisture-absorbed Form I crystal, which was prepared by storing Form I crystal obtained by the method of Example 2 under the atmosphere with 53% RH in a whole day in order to make it absorb moisture.

Series [3] can be described thus: Stability test (Test 3), closed vial, HPLC area percentage of Compound A. The class given is physicochemical. How it is done:
Stability test on each test sample was conducted under following storage conditions.
as §1

Molecules are shown by their SMILES.

For `C[C@H]1C=C(c2csc(SC3=C(C(=O)O)N4C(=O)[C@H]([C@@H](C)O)[C@H]4[C@H]3C)n2)CN1` [Compound A, (4R,5S,6S)-6-[(1R)-1-hydroxyethyl]-4-methyl-3-({4-[(5S)-5-methyl-2,5-dihydro-1H-pyrrol-3-yl]-1,3-thiazol-2-yl}thio)-7-oxo-1-azabicyclo[3.2.0]hept-2-ene-2-carboxylic acid], the “Activity against Gram positive bacteria” value in series [1] is given as “excellent activity”.

With `C[C@H]1C=C(c2csc(SC3=C(C(=O)O)N4C(=O)[C@H]([C@@H](C)O)[C@H]4[C@H]3C)n2)CN1` [Form I crystal, (4R,5S,6S)-6-[(1R)-1-hydroxyethyl]-4-methyl-3-({4-[(5S)-5-methyl-2,5-dihydro-1H-pyrrol-3-yl]-1,3-thiazol-2-yl}thio)-7-oxo-1-azabicyclo[3.2.0]hept-2-ene-2-carboxylic acid], the “Moisture absorption in words” value in series [2] is reported as “absorbs a little moisture”. In addition, the Stability in words result is “excellent” in series [2] and “extremely stable” in series [3] (normal / usual storage condition, conclusion from the stability tests). Moreover, the “Compound A (HPLC surface area %)” value in series [3] (closed vial at 55° C., 2 weeks) is on record as 99.60%; in series [3] (closed vial at 55° C., 4 weeks) it was 99.60%; in series [3] (closed vial at 55° C., Initial), 99.77%. Also, the “Difference from initial value (HPLC surface area %)” value is −0.17% in series [3] (closed vial at 55° C., 2 weeks); −0.17% in series [3] (closed vial at 55° C., 4 weeks); 0% in series [3] (closed vial at 55° C., Initial).

Turning to `C[C@H]1C=C(c2csc(SC3=C(C(=O)O)N4C(=O)[C@H]([C@@H](C)O)[C@H]4[C@H]3C)n2)CN1` [amorphous Compound A, (4R,5S,6S)-6-[(1R)-1-hydroxyethyl]-4-methyl-3-({4-[(5S)-5-methyl-2,5-dihydro-1H-pyrrol-3-yl]-1,3-thiazol-2-yl}thio)-7-oxo-1-azabicyclo[3.2.0]hept-2-ene-2-carboxylic acid], the “Compound A (HPLC surface area %)” value is 73.40% in series [3] (closed vial at 50° C., 1 week); 54.53% in series [3] (closed vial at 50° C., 3 weeks); 39.93% in series [3] (closed vial at 50° C., 6 weeks); 41.33% in series [3] (closed vial at 50° C., 8 weeks); 91.68% in series [3] (closed vial at 50° C., 1 day); 97.95% in series [3] (closed vial at 50° C., Initial).
